Experimental data from US20250049774A1, “Crystalline Forms of Apalutamide” (Apotex Inc., priority 2021, published 2025).

Columns and labels:
[1] = Intrinsic dissolution rate (IDR), Wood's apparatus; assay type: physicochemical; settings: 900 ml distilled water, 37° C., 50 rpm; approx. 200 mg compressed at 1.5 metric tons for 1 minute
Protocol: Intrinsic dissolution rate (IDR) measurements were performed using a Wood's apparatus. Samples were prepared by compressing an amount (approximately 200 mg) of sample at 1.5 metric tons for 1 minute. A dissolution medium consisting of 900 ml distilled water maintained at 37° C., and rotation speed of 50 rpm, was used for each experiment.

[2] = drug substance, as described in CHMP Assessment Report; cited from earlier work
[3] = drug substance, as described in CHMP Assessment Report; cited from earlier work; remark: listed apart in the source

Intrinsic Dissolution Rate [1] | Compound | Biopharmaceutics Classification System (BCS) class [2] | aqueous solubility [2] | permeability [3]
0.0065 mg min^−1 cm^−2 | CNC(=O)c1ccc(N2C(=S)N(c3cnc(C#N)c(C(F)(F)F)c3)C(=O)C23CCC3)cc1F [Apalutamide Form B] |  |  | 
0.0085 mg min^−1 cm^−2 | CNC(=O)c1ccc(N2C(=S)N(c3cnc(C#N)c(C(F)(F)F)c3)C(=O)C23CCC3)cc1F [Apalutamide Amorphous Form] |  |  | 
 | CNC(=O)c1ccc(N2C(=S)N(c3cnc(C#N)c(C(F)(F)F)c3)C(=O)C23CCC3)cc1F [apalutamide, (4-[7-(6-cyano-5-trifluoromethylpyridin-3-yl)-8-oxo-6-thioxo-5,7-diazaspiro[3.4]oct-5-yl]-2-fluoro-N-methylbenzamide)] | Class II | low, pH-independent | high
